# Assay results: the CATMoS acute toxicity set (Mansouri et al. 2021)
# Assay: rat acute oral toxicity
# Details: in vivo
# Text: […]The data set underlying the modeling effort for this project was initially compiled by NICEATM and U.S. EPA’s CCTE. Briefly, LD50 data were collected from rat acute oral systemic toxicity tests, including limit tests, ranges/confidence intervals, and discrete LD50 values. The full data set included 21,200 LD50 entries for 15,688 substances. […] Data were reviewed to ensure that LD50 values with obvious errors in the extracted data such as unit conversion errors (e.g., comma and decimal separator misplacements) were either fixed or removed. After this review, 16,209 LD50 values remained. Many of the chemicals represented had multiple LD50 entries, requiring that a single representative value per Chemical Abstracts Service Registry Number (CASRN) identifier be defined to facilitate modeling efforts. Based on ATWG feedback and to define the representative LD50 as a protective value while accounting for the distribution across multiple LD50s, the median of the lowest quartile was computed using only discrete LD50 values (omitting limit test data and range and confidence interval data). A detailed summary of the data compilation is available online on the NICEATM webpage dedicated to the collaborative modeling project (NTP 2020).
# […][…] For categorical designations, limit test and range/confidence interval LD50 data were integrated wherever possible. As such, the number of chemicals with end point values/calls varies across the modeling end points (Table 3) based on whether chemicals had representative LD50 values and/or other data. If a chemical had both, the representative value was used to determine categorical calls rather than limit test data. Some data were useable only for certain end points and categories depending on the thresholds. For example, ranges that spanned multiple hazard categories were considered only for the binary (very toxic/nontoxic) end points and omitted from rendering a determination for hazard category assignment.
# […]The final data set comprising 11,992 chemicals was split into training and evaluation sets […], respectively. This process was performed semirandomly by ordering chemicals based on the five end points (categorical and continuous LD50 values) and partitioning every fourth record into the evaluation set accordingly. This approach was taken to ensure an equivalent distribution of the LD50 values and the different hazard categories between the training and the evaluation sets without supervised sampling of the chemicals based on structures (Figure 1A). The sources of the chemical structures were also kept equivalent between the two sets, with chemical structures obtained from DSSTox, being the highest quality, representing over 75% of each set (Figure 1B).
structure (smiles),measurement,value
O=C(Cl)CCCCl,LD50,1350 mg/kg
COCCOCCOCCOCCOC,LD50,3850 mg/kg
CN1CCC[C@H]1c1cccnc1,LD50,51.2 mg/kg
ClC1=C(Cl)C2(Cl)C3C(Cl)C=CC3C1(Cl)C2(Cl)Cl (centres undefined),LD50,40 mg/kg
CC(C)N(C(=O)COc1nnc(C(F)(F)F)s1)c1ccc(F)cc1,LD50,480 mg/kg
NC=O,LD50,5580 mg/kg
C#CCO,LD50,20 mg/kg
CC1(C)CC(O)CC(C)(C)N1[O],LD50,953 mg/kg
CN(CCCCCC(=O)O)S(=O)(=O)c1ccccc1 (racemic),LD50,3040 mg/kg
CCCCN=C=O,LD50,360 mg/kg
C#CCOC(=O)[C@@H](C)Oc1ccc(Oc2ncc(Cl)cc2F)cc1,LD50,2230 mg/kg
C=CC(=O)OCCCC,LD50,900 mg/kg
Cc1ccc2nc3sc(=O)sc3nc2c1,LD50,1100 mg/kg
CCCCC(CC)C(=O)O (centres undefined),LD50,2040 mg/kg
Cc1ccc([N+](=O)[O-])c(C)c1,LD50,1690 mg/kg
CCCCC#N,LD50,332 mg/kg
O=P(OC(CCl)CCl)(OC(CCl)CCl)OC(CCl)CCl,LD50,1850 mg/kg
CC(C)CC=O,LD50,5600 mg/kg
CCCNC(=O)NS(=O)(=O)c1ccc(Cl)cc1,LD50,2150 mg/kg
O=C1C2(Cl)C3(Cl)C4(Cl)C(Cl)(Cl)C5(Cl)C3(Cl)C1(Cl)C5(Cl)C24Cl (centres undefined),LD50,91.3 mg/kg
Cc1ccc(C)c(C)c1,LD50,3280 mg/kg
Clc1ccc(C(Cl)Cl)cc1,LD50,1910 mg/kg
CCN(C(=O)N(CC)c1ccccc1)c1ccccc1,LD50,781 mg/kg
Cc1cccnc1,LD50,400 mg/kg
CCOC(=O)C(Cl)C(C)=O (centres undefined),LD50,233 mg/kg
O=C(CS)OC(CO)CO,LD50,172 mg/kg
COCCOCCOCCOC,LD50,5390 mg/kg
Ic1ccccc1,LD50,1750 mg/kg
ClSC(Cl)(Cl)Cl,LD50,82.6 mg/kg
CCC(=O)O,LD50,2600 mg/kg
CCCCCOC(C)=O,LD50,6500 mg/kg
NC(=O)c1c(F)cccc1F,LD50,1080 mg/kg
CC(C)c1ccccc1,LD50,1400 mg/kg
O=C1OC(O)C(C(Cl)Cl)=C1Cl (centres undefined),LD50,128 mg/kg
CC(C)c1cccc(C(C)C)c1N=C=Nc1c(C(C)C)cccc1C(C)C,LD50,200 mg/kg
C[C@@H](O)C(=O)O,LD50,3540 mg/kg
Oc1ccc(Cl)cc1Cc1cc(Cl)ccc1O,LD50,1510 mg/kg
COCCCNc1nc(NCCCOC)nc(SC)n1,LD50,1400 mg/kg
c1ccc(OCC2CO2)cc1 (centres undefined),LD50,2500 mg/kg
Oc1cccc(O)c1,LD50,301 mg/kg
CCON=C(CC)C1=C(O)CC(c2c(C)cc(C)cc2C)CC1=O (centres undefined),LD50,934 mg/kg
Cc1nnc(-c2ccccc2)c(=O)n1N,LD50,1180 mg/kg
CC1(C)CC(NCCCCCCNC2CC(C)(C)NC(C)(C)C2)CC(C)(C)N1,LD50,820 mg/kg
CC=C1CC2CC1C1C3C=CC(C3)C21 (centres undefined),LD50,666 mg/kg
O=C(CCl)c1ccccc1,LD50,50 mg/kg
C=COC(C)=O,LD50,2900 mg/kg
CCNc1nc(Cl)nc(NC(C)(C)C#N)n1,LD50,149 mg/kg
CC(O)CCO (centres undefined),LD50,18600 mg/kg
C=CC1CC2C=CC1C2 (centres undefined),LD50,5240 mg/kg
CCCCOCCOC(=O)COc1ccc(Cl)cc1Cl,LD50,831 mg/kg
Cc1ccccc1S(N)(=O)=O,LD50,2400 mg/kg
CCOP(=S)(OCC)Oc1cc(C)nc(N(CC)CC)n1,LD50,140 mg/kg
CN=C=S,LD50,55 mg/kg
CCCCCCCC(=O)OCC(COC(=O)CCCCCCC)OC(=O)CCCCCCC,LD50,33300 mg/kg
CC1CCC(CO)CC1 (centres undefined),LD50,707 mg/kg
Clc1cc(-c2cc(Cl)c(Cl)c(Cl)c2)cc(Cl)c1Cl,LD50,4250 mg/kg
CCCCNC(=O)OCC#CI,LD50,1100 mg/kg
CCCCOCC1CO1 (centres undefined),LD50,1660 mg/kg
CC(=O)C(C)C,LD50,148 mg/kg
CC(O)C#N (centres undefined),LD50,21 mg/kg
ClC(Cl)C(Cl)Cl,LD50,200 mg/kg
O=[N+]([O-])C(Br)(CO)CO,LD50,180 mg/kg
CCOP(=S)(OCC)SCCSCC,LD50,1.9 mg/kg
CC(COCC(C)OC(=O)c1ccccc1)OC(=O)c1ccccc1 (centres undefined),LD50,3300 mg/kg
Cc1cc(C)cc(N)c1,LD50,707 mg/kg
N#Cc1ccccc1O,LD50,300 mg/kg
Nc1ccc(Cl)c(Cl)c1,LD50,530 mg/kg
COc1c(Cl)ccc(Cl)c1C(=O)O,LD50,757 mg/kg
CCC(C)C(C)C(C)CCc1ccc(O)cc1 (centres undefined),LD50,2100 mg/kg
O=[N+]([O-])/N=C1\NCCN1Cc1ccc(Cl)nc1,LD50,410 mg/kg
CO[Si](OC)(c1ccccc1)c1ccccc1,LD50,2610 mg/kg
CCCCC(CC)COP(Oc1ccccc1)Oc1ccccc1 (centres undefined),LD50,3840 mg/kg
O=C=Nc1cccc(C(F)(F)F)c1,LD50,975 mg/kg
O=C(O)COc1nc(Cl)c(Cl)cc1Cl,LD50,630 mg/kg
